# Assay results as given in PMC3669024, “Pharmacological Characterization of a 5-HT1-Type Serotonin Receptor in the Red Flour Beetle, Tribolium castaneum” (PLoS ONE, 2013).
# “Also recorded” adds a separate entry of the source. Counter-ions that a name gives are not always drawn. Like-named read-outs stand apart in the source and are kept apart here.
# What was measured:
# Trica5-HT1 [1] = biological target: T1, Trica5-HT1 (Tribolium castaneum, UniProt R9ULB8); test: Aequorin-luminescence assay, agonist activation of Trica5-HT1 in CHO-WTA11 cells (apoaequorin + Gα16); assay type: cell-based; settings: for response at concentrations ≤100 µM: results not shown; for response at 100 µM agonist: Figure 3A; for agonist behaviour: dose-response 1 pM to 1 mM
# T1 sequence (R9ULB8 entry or part of it): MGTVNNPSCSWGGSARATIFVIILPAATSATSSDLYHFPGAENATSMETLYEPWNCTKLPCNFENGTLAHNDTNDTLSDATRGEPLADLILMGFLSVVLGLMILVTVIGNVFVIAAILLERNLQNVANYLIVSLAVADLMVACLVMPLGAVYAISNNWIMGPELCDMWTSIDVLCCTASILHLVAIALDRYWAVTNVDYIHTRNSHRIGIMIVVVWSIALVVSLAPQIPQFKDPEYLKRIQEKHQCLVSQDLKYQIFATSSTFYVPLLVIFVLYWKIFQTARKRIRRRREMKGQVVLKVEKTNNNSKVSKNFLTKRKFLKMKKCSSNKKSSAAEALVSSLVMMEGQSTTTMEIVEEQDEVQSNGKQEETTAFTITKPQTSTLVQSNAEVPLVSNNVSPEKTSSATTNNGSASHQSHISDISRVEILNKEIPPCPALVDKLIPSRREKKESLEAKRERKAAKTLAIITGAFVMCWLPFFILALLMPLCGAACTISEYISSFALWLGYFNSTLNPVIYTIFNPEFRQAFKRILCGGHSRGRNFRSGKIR
# Protocol: (§1) General binding studies were performed in Chinese hamster ovary (CHO) WTA11 cells stably coexpressing apoaequorin and the promiscuous Gα16. This allowed us to measure the pharmacology independent of the downstream signaling. CHO-PAM28 cells stably expressing apoaequorin, but not the promiscuous Gα16, and human embryonic kidney cells (HEK) 293 cells were used to measure downstream signaling via Ca^2+ and cAMP, respectively. CHO cell lines were provided by Prof. Marc Parmentier (University of Brussels, Belgium) and Dr. Michel Detheux (Euroscreen S.A., Belgium). HEK293 cells were a gift from Prof. Arnd Baumann (Research Centre Jülich, Germany.
# (§2) Cells were cultured in vitro as monolayers at 37°C, 5% CO2 and high relative humidity, and subcultivated twice a week. For transfection of CHO cells, 2.5 ml Opti-MEM®I (Invitrogen), 5 µg plasmid DNA and 12.5 µl Plus^TMreagent (Invitrogen) were mixed, stored at room temperature for 5 min and next repleted with 30 µl Lipofectamine™LTX (Invitrogen). After 30 min incubation at room temperature, this transfection mixture was added dropwise to the cells together with 5 ml medium. HEK293 cells were cotransfected with receptor construct (4 µg) and CRE-luciferase construct (2 µg), consisting of the open reading frame of the reporter gene, luciferase, downstream of a multimerized cAMP-response-element (CRE6x), [39]. All transfections were performed in T75 flasks with a confluency of about 60 percent. Cells were grown overnight, after which 15 ml of medium was added for an additional overnight incubation period.
# (§3) The transfected CHO cells were detached with phosphate buffered saline (PBS) containing 0.2% EDTA and collected in DMEM/F-12 (without phenol red, with L-glutamine and 10 mM HEPES) (Gibco). The amount of viable cells was determined using the NucleoCounter NC-100+TM (Chemometic). Cells were pelleted for 4 min at 800 rpm at room temperature and resuspended in BSA-medium (DMEM/F12 without phenol red, with L-glutamine and 10 mM HEPES, supplemented with 0.1% bovine serum albumin) to a concentration of 5×10^6 cells/ml. Coelenterazine H (Invitrogen) was added to a final concentration of 5 µM, and cells were gently shaken for 4 h at room temperature in the dark. After a 10-fold dilution in BSA-medium, cells were incubated another 30 min. The pharmacological ligands were dissolved in BSA-medium. For agonists, 50 µl containing the final ligand concentration was added to appropriate wells of a 96-well plate. For antagonists, 25 µl of the antagonist solution was supplemented with 25 µl of a 5-HT solution. Receptor activity was measured as the light emission after adding 50 µl of the cell suspension. Light emission was measured for 30 s using a Mithras LB940 (Berthold Technologies). Subsequently, cells were lysed with Triton X-100 (0.1% in BSA-medium) and light emission was recorded for another 8 s. BSA-medium was used as a negative control. Light emission from each well was calculated relative to the total response (ligand+Triton X-100) using the output file of Mikrowin2000 software (Mikrotek). Further analysis was done in Graphpad Prism 5.
# In order to pharmacologically characterize Trica5-HT1, we used CHO-WTA11 cells stably expressing apoaequorin and the promiscuous Gα16 subunit. […] The dose-response relationship for 5-HT and these synthetic agonists was examined at concentrations ranging from 1 pM to 1 mM (Figure 3B). […] Since the efficacy achieved by any agonist depends on the number of receptors expressed, we measured a dose-response curve for 5-HT in every experiment and normalized all agonist effects to the maximum 5-HT response, set at 100% (Figure 3B).
# Trica5-HT1 [2] = biological target: T1, Trica5-HT1; test: Aequorin-luminescence assay, antagonist inhibition of 5-HT mediated activation of Trica5-HT1 in CHO-WTA11 cells; assay type: cell-based; settings: for inhibition of 5-HT induced responses (words): antagonist 10 nM to 1 mM; for nature of inhibition: 5-HT dose-response in presence of different antagonist concentrations; for IC50 / logIC50 (mean ± SEM): CHO-WTA11 cells; for inhibition of activation by 100 nM 5-HT at high concentrations (≥1 mM): antagonist ≥1 mM
# Protocol: as §1, §2, §3
# Potential antagonists were tested by simultaneously applying 5-HT (100 nM) and a high dose of antagonist (100 µM) to Trica5-HT1 expressing cells (Figure 4A). In addition, the dose-dependence of the antagonistic effects were measured with antagonist concentrations ranging from 10 nM to 1 mM (Figure 4B). […] We used the Gaddum/Schild plot to compare the inhibitory potencies of the antagonists by their pA2 values (i.e. the […] of the concentration of antagonist that doubles the amount of 5-HT required for obtaining the same effect).
# Pea5-HT1 = system: Pea5-HT1; set-up: method as in PMID 20233210; settings: cited from earlier work
# Am5-HT1 = system: Am5-HT1; set-up: method as in PMID 20349263; settings: cited from earlier work
# [3] = IC50, inhibition of 5-HT (100 nM) mediated activation
# [4] = logIC50 (mean ± SEM), inhibition of 5-HT (100 nM) mediated activation, given as negative log values
# [5] = inhibition of 5-HT (100 nM) mediated activation, given as negative log values
# [6] = inhibition of 5-HT (100 nM) mediated activation, read-out: IC50
# [7] = receptor activation in CHO-WTA11 cells, given as negative log values
# [8] = receptor activation in CHO-WTA11 cells, read-out: EC50
# [9] = inhibition of 5-HT (100 nM) mediated activation
compound,measurement,setting,value
"Cl.NCCc1ccc(O)c(O)c1.NCCc1ccc(O)c(O)c1 [dopamine, 3-hydroxytyramine (dopamine) hydrochloride]",response at concentrations ≤100 µM,Trica5-HT1 [1]; CHO-WTA11 cells,did not generate any detectable responses
"CC[C@@H](CO)NC(=O)[C@@H]1C=C2c3cccc4c3c(cn4C)C[C@H]2N(C)C1 [methysergide, methysergide maleate]",inhibition of 5-HT induced responses (words),Trica5-HT1 [2]; 5-HT 100 nM,effective dose-dependent inhibition
same,nature of inhibition,Trica5-HT1 [2],competitive antagonists
same,IC50,Trica5-HT1 [2]; [3],34 µM
same,inhibition of activation by 100 nM 5-HT at high concentrations (≥1 mM),Trica5-HT1 [2],completely inhibited
same,IC50,Trica5-HT1 [2]; [4],33.9 µM
"COC(=O)[C@@H]1[C@H]2C[C@H]3c4[nH]c5ccccc5c4CCN3C[C@@H]2CC[C@@H]1O [yohimbin, yohimbine hydrochloride]",inhibition,"Trica5-HT1 [2]; 5-HT 100 nM, even at concentrations up to 100 µM",about 30%
"CC1CCN(CC[C@H]2CCCN2S(=O)(=O)c2cccc(O)c2)CC1.Cl [SB-269970, SB-269970 hydrochloride]",inhibition of 5-HT induced responses (words),Trica5-HT1 [2]; 5-HT 100 nM,Moderate inhibition; also recorded: more effective inhibition
same,logIC50 (mean ± SEM),Trica5-HT1 [2]; [5],−3.69±0.25
same,IC50,Trica5-HT1 [2]; [6],205 µM
"CCCN(CCC)C1CCc2cccc(O)c2C1 (racemic) [8-OH-DPAT, (±)-8-hydroxy-2-(dipropylamino)tetralin hydrobromide]",concentrations at which responses were evoked,Trica5-HT1 [1]; CHO-WTA11 cells,≥ 100 µM
same,response at 100 µM agonist,Trica5-HT1 [1]; CHO-WTA11 cells,Significant responses
same,agonist behaviour,Trica5-HT1 [1]; CHO-WTA11 cells,very poor response
same,EC50,"Trica5-HT1 [1]; EC50, receptor activation in CHO-WTA11 cells",551 µM
same,EC50,"Trica5-HT1 [1]; logEC50 (mean ± SEM), receptor activation in CHO-WTA11 cells, given as negative log values",550 µM
same,agonist behaviour,Pea5-HT1,poor agonist
same,agonist behaviour,Am5-HT1,poor agonist
"CC(N)Cc1c[nH]c2ccc(O)cc12.O=C(O)/C=C\C(=O)O (stereo not drawn) [αm-5-HT, α-methylserotonin maleate]",response at 100 µM agonist,Trica5-HT1 [1]; CHO-WTA11 cells,Significant responses
same,fold less potent than 5-HT,"Trica5-HT1 [1]; EC50 compared with 5-HT, CHO-WTA11 cells",more than 100 fold
same,logEC50 (mean ± SEM),Trica5-HT1 [1]; [7],−4.97±0.18
same,EC50,Trica5-HT1 [1]; [8],10.7 µM
"CC(C)(C)[C@]1(O)CCN2C[C@H]3c4ccccc4CCc4cccc(c43)[C@@H]2C1 [butaclamol, (+)-butaclamol hydrochloride]",agonistic effects at high concentration,"Trica5-HT1 [2]; 100 µM, with 5-HT 100 nM",some agonistic effects
same,inhibition of 5-HT induced responses (words),Trica5-HT1 [2]; 5-HT 100 nM,no detectable inhibition
same,IC50,Trica5-HT1 [2]; [4],204 µM
"NCC(O)c1ccc(O)cc1 (racemic) [octopamine, DL-octopamine hydrochloride]",response at concentrations ≤100 µM,Trica5-HT1 [1]; CHO-WTA11 cells,did not generate any detectable responses
"NCCc1c[nH]c2ccc(C(N)=O)cc12.O=C(O)/C=C\C(=O)O [5-CT, 5-carboxamidotryptamine maleate]",response at 100 µM agonist,Trica5-HT1 [1]; CHO-WTA11 cells,Significant responses
same,agonist behaviour,Trica5-HT1 [1]; CHO-WTA11 cells,partial agonists
same,logEC50 (mean ± SEM),Trica5-HT1 [1]; [7],−4.61±0.17
same,EC50,Trica5-HT1 [1]; [8],24.7 µM
"COc1ccc2[nH]cc(CCN)c2c1 [5-MT, 5-methoxytryptamine]",response at 100 µM agonist,Trica5-HT1 [1]; CHO-WTA11 cells,Significant responses
same,agonist behaviour,Trica5-HT1 [1]; CHO-WTA11 cells,partial agonists
same,EC50,"Trica5-HT1 [1]; receptor activation in CHO-WTA11 cells, given as negative log values, read-out: logEC50 (mean ± SEM) (converted)",91.2 µM
same,EC50,Trica5-HT1 [1]; [8],91.8 µM
"COc1ccccc1N1CCN(CCN(C(=O)C2CCCCC2)c2ccccn2)CC1 [WAY-100635, N-{2-[4-(2-methoxyphenyl)-1-piperazinyl]-ethyl}-N-(2-pyridinyl) cyclohexanecarboxamide]",inhibition of 5-HT induced responses (words),Trica5-HT1 [2]; 5-HT 100 nM,no clear dose-dependent effect
same,IC50,Trica5-HT1 [2]; [9],no clear dose-dependence of inhibition
same,logIC50 (mean ± SEM),Trica5-HT1 [2]; [5],no clear dose-dependence of inhibition
same,inhibition of agonist stimulated receptor,Pea5-HT1,effective inhibition
same,antagonist behaviour,Am5-HT1,partial antagonist
"COc1cc2nc(N3CCN(C(=O)c4ccco4)CC3)nc(N)c2cc1OC [prazosin, prazosin hydrochloride]",inhibition of 5-HT induced responses (words),Trica5-HT1 [2]; 5-HT 100 nM,effective dose-dependent inhibition
same,nature of inhibition,Trica5-HT1 [2],competitive antagonists
same,IC50,Trica5-HT1 [2]; [3],1.39 µM
same,inhibition of activation by 100 nM 5-HT at high concentrations (≥1 mM),Trica5-HT1 [2],completely inhibited
same,IC50,Trica5-HT1 [2]; [4],1.38 µM
"CSc1ccc2c(c1)C(N1CCN(C)CC1)Cc1ccccc1S2 (stereo not drawn) [methiothepin, methiothepin mesylate]",inhibition of 5-HT induced responses (words),Trica5-HT1 [2]; 5-HT 100 nM,effective dose-dependent inhibition
same,inhibition of 5-HT induced responses (words),"Trica5-HT1 [2]; 5-HT 100 nM, listed as Methiothepin",dose-dependent inhibition
same,nature of inhibition,Trica5-HT1 [2],competitive antagonists
same,Kb,"Trica5-HT1 [2]; Gaddum/Schild plot, 5-HT dose-response in presence of 10 nM to 1 mM antagonist, read-out: pA2 (± SEM) (converted)",0.676 µM
same,inhibition of activation by 100 nM 5-HT at high concentrations (≥1 mM),Trica5-HT1 [2],completely inhibited
same,IC50,"Trica5-HT1 [2]; inhibition of 5-HT (100 nM) mediated activation, given as negative log values, read-out: logIC50 (mean ± SEM) (converted)",16.2 µM
same,IC50,Trica5-HT1 [2]; [6],16.4 µM
"NCCc1ccc(O)cc1 [tyramine, tyramine hydrochloride]",response at concentrations ≤100 µM,Trica5-HT1 [1]; CHO-WTA11 cells,did not generate any detectable responses
"O=C(c1ccc(F)cc1)C1CCN(CCn2c(=O)[nH]c3ccccc3c2=O)CC1 [ketanserin, ketanserin (+)-tartrate]",inhibition of 5-HT induced responses (words),Trica5-HT1 [2]; 5-HT 100 nM,no detectable inhibition
same,IC50,Trica5-HT1 [2]; [9],no inhibition
same,logIC50 (mean ± SEM),Trica5-HT1 [2]; [5],no inhibition
